Reference: patent US20070218491A1, “Oligomerization of amyloid proteins” (Oligomerix, Inc., priority 2006, published 2007)
Read-outs that look alike come from different tables or passages of the source. Values belong to the compound of their own block, whether it stands above or below them.

What was measured:
[1] = target: T1, human islet amyloid polypeptide (Homo sapiens, UniProt P10997); settings: cited from earlier work
T1 sequence (P10997 34-70 limits assumed): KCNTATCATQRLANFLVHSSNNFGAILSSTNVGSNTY

[2] = target: tau (Homo sapiens, UniProt P10636); experiment: Screening compounds for inhibition of RNA-facilitated tau oligomer formation (modified ELISA); type: biochemical; settings: incubations with RQ11+12 RNA polyanion; FIG. 14
Sequence of tau (P10636 1-412 isoform P10636-7): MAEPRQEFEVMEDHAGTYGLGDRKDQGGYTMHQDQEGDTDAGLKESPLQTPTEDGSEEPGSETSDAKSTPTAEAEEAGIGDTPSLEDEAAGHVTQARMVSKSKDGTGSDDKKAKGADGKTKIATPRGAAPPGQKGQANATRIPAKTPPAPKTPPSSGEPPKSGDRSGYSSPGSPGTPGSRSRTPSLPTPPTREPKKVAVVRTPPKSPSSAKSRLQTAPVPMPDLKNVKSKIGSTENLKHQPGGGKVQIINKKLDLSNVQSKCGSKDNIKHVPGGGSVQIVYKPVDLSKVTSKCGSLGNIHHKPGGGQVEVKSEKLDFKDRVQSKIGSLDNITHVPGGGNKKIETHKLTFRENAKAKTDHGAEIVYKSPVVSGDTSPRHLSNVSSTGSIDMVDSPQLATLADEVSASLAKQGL
Experimental: RNA polyanion was used to facilitate oligomer formation of tau protein in vitro using the following, preferred, conditions: 20 pmoles of tau412 was reacted with 4 pmoles of a 197 base RNA, i.e., RQ11+12, in 50 mM Tris-HCl buffer at pH of 7.4 and incubated for 1 hour at 37° C. […] The 5:1 ratio was optimal for the RNA RQT157 as well (FIG. 15). […] The kinetics of oligomer formation was rapid. […] Physiological pH and temperature were used in the assay to simulate biological conditions.
Formation of tau oligomers was analyzed using two different ELISA methods to provide verified data. The “modified” ELISA uses the same monoclonal antibody for capture and detection. Insoluble aggregates are removed in the ELISA procedure during washing steps. Only soluble aggregates of tau, not monomers, are detected with this ELISA because the detection and reporter antibody recognizes an epitope which is present only once within tau. At least one more tau molecule must be present in the complex for detection with the same antibody (method illustrated in FIG. 7). The modified ELISA used is similar to the modified ELISA previously used for identification of Aβ oligomers (Sian et al., Biochem. J. 349(Pt 1):299-308 2000)) and PrP oligomers (Vasan et al., Neurochem Res 31(5):629-37(2006)). […]

[3] = target: tau412 (Homo sapiens, UniProt P10636); experiment: Polyanion-facilitated tau412 oligomer formation detected by ELISA (modified, A11, DC11); type: biochemical; settings: for facilitation of tau412 oligomer formation by heparin or DNA: modified ELISA, FIGS. 13 and 16
Sequence of tau412 (P10636 1-412 isoform P10636-7): as above
Experimental: The 5:1 ratio was optimal for the RNA RQT157 as well (FIG. 15). […] The kinetics of oligomer formation was rapid. […] Physiological pH and temperature were used in the assay to simulate biological conditions. Formation of tau oligomers was analyzed using two different ELISA methods to provide verified data. The “modified” ELISA uses the same monoclonal antibody for capture and detection. Insoluble aggregates are removed in the ELISA procedure during washing steps. Only soluble aggregates of tau, not monomers, are detected with this ELISA because the detection and reporter antibody recognizes an epitope which is present only once within tau. At least one more tau molecule must be present in the complex for detection with the same antibody (method illustrated in FIG. 7). The modified ELISA used is similar to the modified ELISA previously used for identification of Aβ oligomers (Sian et al., Biochem. J. 349(Pt 1):299-308 2000)) and PrP oligomers (Vasan et al., Neurochem Res 31(5):629-37(2006)). This assay used antibody MN1000, recognizing tau epitope amino acids 159-163, for capture and biotinylated MN1000 as reporter. […] The second ELISA method to detect oligomers is based on polyclonal antibody A11 which recognizes a common structure in soluble amyloid oligomers (FIGS. 8-10, and 12). (Kayed et al., Science 300: 486-491(2003)). […] This assay was used to optimize the molar ratio of tau:RNA for oligomer formation (FIGS. 8 and 15), follow oligomer formation over time (FIG. 10), show tau oligomer formation with a range of RNAs (FIG. 12), and detect soluble tau oligomers in CSF (FIG. 11). A third ELISA was used to show biological relevance of the tau oligomers formed in this assay to tau in AD and is based on monoclonal antibodies DC11 used for capture and biotinylated MN1000 for reporter. The antibody DC11 recognizes a conformational epitope in tau specific for AD (Vechterova et al., Neuroreport 1:87-91 (2003)). […] Oligomer formation was determined by modified ELISA (described above). […]

Compound: Cc1ccc(C(=O)Nc2ccc(S(=O)(=O)O)c3cc(S(=O)(=O)O)cc(S(=O)(=O)O)c23)cc1NC(=O)c1cccc(NC(=O)Nc2cccc(C(=O)Nc3cc(C(=O)Nc4ccc(S(=O)(=O)O)c5cc(S(=O)(=O)O)cc(S(=O)(=O)O)c45)ccc3C)c2)c1 [Suramin]
effect on amyloid fibril formation ([1]; at high concentrations): stimulated the process | effect on amyloid fibril formation ([1]; at low concentrations): inhibited amyloid fibril formation

Compound: Heparin
facilitation of tau412 oligomer formation by heparin or DNA [3]: effective in facilitating tau oligomer formation

Other lines, results leading:

inhibition of RNA-facilitated tau oligomer formation [2]: inhibition
Compound: COc1cc(/C=C/C(=O)CC(=O)/C=C/c2ccc(O)c(OC)c2)ccc1O [curcumin]

facilitation of tau412 oligomer formation by heparin or DNA [3]: enhanced tau412 oligomer formation
Compound: Polydeoxythymidine

facilitation of tau oligomer formation by RNA ([3]; 5:1 tau:RNA ratio, detected with A11 Ab, FIG. 12): facilitated tau oligomer formation
Compound: polyA
